Test results: patent US8748520B2, “Polycarbonate resin composition containing triazine compound and molded article using the same” (FUJIFILM Corporation, priority 2009, dated 2014)

assay: Measurement of pKa from absorption spectra; assay type: physicochemical; conditions: in acetonitrile, 70% perchloric acid (solvent: acetic acid) added dropwise; proton adduct at nitrogen atom of triazine ring
Method: <Method for Measuring pKa>
Compound (1) was dissolved in acetonitrile to give an absorbance of 1 and to this solution, 70% perchloric acid (solvent: acetic acid) was added dropwise, thereby varying the pH. At this time, the absorption spectrum of solution was measured and based on the absorbance at λmax, the proportions of a triazine-free form and a proton adduct were calculated at each pH. From the point at which these values became equal, the pKa value was determined. Here, the triazine-free form indicates Compound (1) itself, and the proton adduct indicates a compound resulting from addition of a proton to the nitrogen atom of triazine ring of Compound (1). […] The absorption spectrum was measured using a spectrophotometer, UV-3600 (trade name), manufactured by Shimadzu Corporation, and the pH was measured using a pH meter, HM60G (trade name), manufactured by To a Denpa Kogyo. Incidentally, the absorbance is a value measured at the maximum absorption wavelength of each compound.

SMILES	pKa
COC(=O)c1ccc(-c2nc(-c3ccccc3O)nc(-c3ccc(OC)cc3O)n2)cc1 [Compound (104)]	-5
COc1ccc(-c2nc(-c3ccc(C(=O)OCC(CCC(C)CC(C)(C)C)C(C)CC(C)(C)C)cc3)nc(-c3ccccc3O)n2)c(O)c1 (stereo not shown) [Compound (117)]	-5
COc1ccc(-c2nc(-c3ccc(C(=O)OCC(CCC(C)CCCC(C)C)C(C)CCCC(C)C)cc3)nc(-c3ccccc3O)n2)c(O)c1 (stereo not shown) [Compound (119)]	-5

Continued, values first:

pKa	SMILES
-5	CCCCCCCCCC(CCCCCCC)COC(=O)c1ccc(-c2nc(-c3ccccc3O)nc(-c3ccc(OC)cc3O)n2)cc1 (stereo not shown) [Compound (118)]
-5	CCC(C)CCCCCC(CCCC(C)CC)COC(=O)c1ccc(-c2nc(-c3ccccc3O)nc(-c3ccc(OC)cc3O)n2)cc1 (stereo not shown) [Compound (116)]
-5	COc1ccc(-c2nc(-c3ccc(C(=O)OCC(CCCCC(C)C)CCC(C)C)cc3)nc(-c3ccccc3O)n2)c(O)c1 (stereo not shown) [Compound (114)]
-5	CCCCCCCCC(CCCCCC)COC(=O)c1ccc(-c2nc(-c3ccccc3O)nc(-c3ccc(OC)cc3O)n2)cc1 (stereo not shown) [Compound (115)]
